Reference: patent publication US7541020B2, “Aminoalkyl glucosaminide phosphate compounds and their use as adjuvants and immunoeffectors” (priority 1997, dated 2009)
Like-named read-outs stand apart in the source and are kept apart here.

Columns and labels:
E.G7 (OVA) cells = conditions: s.c. 25 μg OVA in AGP preparation, spleen cells 21 days later
influenza A/HK/68 [1] = format: in vivo, BALB/c mice
influenza A/HK/68 [2] = system: influenza A/HK/68; parameters: species or system ICR mice; conditions: mouse, in vivo
influenza A/HK/68 [3] = format: in vivo, ICR mice; conditions: mouse, in vivo
IL-1β = test: Cytokine induction in human whole blood ex vivo culture: IL-1β (ELISA); format: cell-based; conditions: 4 hr, Table 19
Description: (§1) AGP compounds were solubilized in 10% EtOH-water and diluted to various concentrations. Fifty μl of each dilution were added to 450 μl of whole human blood. Controls were treated with culture media (RPMI). The reaction mixture was incubated at 37° C. for 4 hr with constant mixing on a rotator. Sterile PBS (1.5 ml) was added to the reaction mixture, the cells were centrifuged and the supernatents removed for cytokine testing. The concentration of TNF-α and IL-1β in each supernatent was determined using immunoassay ELISA kits from R&D Systems.

TNF-α = test: Cytokine induction in human whole blood ex vivo culture: TNF-α (ELISA); format: cell-based; conditions: 4 hr, Table 19
Description: as §1

tetanus toxoid = conditions: mouse, in vivo, sc
[4] = 25 μg AGP + 1 HAU FI-Flu in 2% Squalene, SQ once, bled 14 days after vaccination

## 3-Hydroxy-(S)-2-[(R)-3-decanoyloxytetradecanoylamino]propyl 2-Deoxy-6-O-phosphono-2-[(R)-3-decanoyloxytetradecanoylamino]-3-O-[(R)-3-decanoyloxytetradecanoyl]-β-D-glucopyranoside Triethylammonium Salt [B6]
E.G7 (OVA) cells; E:T 12.5:1
  % Cytotoxicity: 37%
E.G7 (OVA) cells; E:T 25:1
  % Cytotoxicity: 41%
E.G7 (OVA) cells; E:T 50:1
  % Cytotoxicity: 54%
Influenza A/HK/68 [1]; mouse, in vivo
  Anti-influenza Titer^−1 IgG1: 800
  Anti-influenza Titer^−1 IgG2a: 400
  Anti-influenza Titer^−1 IgG2b: 1600
  Anti-influenza Titer^−1 Total IgG: 800
  Percent Survival: 75%
Influenza A/HK/68 [2]
  IgG Titer-1 post 1°: 1600
  IgG Titer-1 post 2°: 102,400
  Percent Survival post 1°: 80%
  Percent Survival post 2°: 70%

## 3-Hydroxy-(S)-2-[(R)-3-heptanoyloxytetradecanoylamino]propyl 2-Deoxy-4-O-phosphono-2-[(R)-3-heptanoyloxytetradecanoylamino]-3-O-[(R)-3-heptanoyloxytetradecanoyl]-β-D-glucopyranoside Triethylammonium Salt [B8]
Influenza A/HK/68 [3]
  Percent Survival: 80%
  Titer−1 IgG1: 3200
  Titer−1 IgG2a: 400
  Titer−1 IgG2b: 1600
  Titer−1 Total IgG: 6400
E.G7 (OVA) cells; E:T 12.5:1
  % Cytotoxicity: 15%
E.G7 (OVA) cells; E:T 25:1
  % Cytotoxicity: 20%
E.G7 (OVA) cells; E:T 50:1
  % Cytotoxicity: 36%

## CCCCCCCCCCC[C@H](CC(=O)N[C@H]1[C@H](OCCCN(CC(=O)O)C(=O)C[C@@H](CCCCCCCCCCC)OC(=O)CCCCCCCCC)O[C@H](CO)[C@@H](OP(=O)(O)O)[C@@H]1OC(=O)C[C@@H](CCCCCCCCCCC)OC(=O)CCCCCCCCC)OC(=O)CCCCCCCCC.CCN(CC)CC [B28]
IL-1β; Dosage 1000 ng/ml
  IL-1β: 8 pg/mL
IL-1β; Dosage 5000 ng/ml
  IL-1β: 13 pg/mL
IL-1β; Dosage 10,000 ng/ml
  IL-1β: 13 pg/mL
TNF-α; Dosage 1000 ng/ml
  TNF-α: 139 pg/mL
TNF-α; Dosage 5000 ng/ml
  TNF-α: 197 pg/mL
TNF-α; Dosage 10,000 ng/ml
  TNF-α: 198 pg/mL
E.G7 (OVA) cells; E:T 12.5:1
  % Cytotoxicity: 9%
E.G7 (OVA) cells; E:T 25:1
  % Cytotoxicity: 15%
E.G7 (OVA) cells; E:T 50:1
  % Cytotoxicity: 28%
Influenza A/HK/68 [1]; 25 μg AGP + 1 HAU FI-Flu in 2% Squalene, SQ once, […], mortality 21 days
  Percent Survival: 50%
Influenza A/HK/68 [1]; [4]
  Anti-influenza Titer^−1 IgG1: 400
  Anti-influenza Titer^−1 IgG2a: 400
  Anti-influenza Titer^−1 IgG2b: 100
  Anti-influenza Titer^−1 Total IgG: 800
Tetanus toxoid
  Anti-tetanus toxoid IgG1 T/C: 92.5
  Anti-tetanus toxoid IgG1 Titer: 137,600
  Anti-tetanus toxoid IgG2a T/C: 664.7
  Anti-tetanus toxoid IgG2a Titer: 9,970
  Anti-tetanus toxoid IgG2b T/C: 519.2
  Anti-tetanus toxoid IgG2b Titer: 27,520
  Anti-tetanus toxoid IgM T/C: 3.7
  Anti-tetanus toxoid IgM Titer: 2,080
  Anti-tetanus toxoid Total Ig T/C: 228.6
  Anti-tetanus toxoid Total Ig Titer: 54,500

## N-[(R)-3-Decanoyloxytetradecanoyl]-O-[2-deoxy-4-O-phosphono-2-[(R)-3-decanoyloxytetradecanoylamino]-3-O-[(R)-3-hexanoyloxytetradecanoyl]-α-D-glucopyranosyl]-L-serine Triethylammonium Salt [B35]
E.G7 (OVA) cells; E:T 12.5:1
  % Cytotoxicity: 2%
E.G7 (OVA) cells; E:T 25:1
  % Cytotoxicity: 5%
E.G7 (OVA) cells; E:T 50:1
  % Cytotoxicity: 9%

## N-[(R)-3-Decanoyloxytetradecanoyl]-O-[2-deoxy-4-O-phosphono-2-[(R)-3-hexanoyloxytetradecanoylamino]-3-O-[(R)-3-decanoyloxytetradecanoyl]-α-D-glucopyranosyl]-L-serine Triethylammonium Salt [B36]
E.G7 (OVA) cells; E:T 12.5:1
  % Cytotoxicity: 4%
E.G7 (OVA) cells; E:T 25:1
  % Cytotoxicity: 7%
E.G7 (OVA) cells; E:T 50:1
  % Cytotoxicity: 13%

## N-[(R)-3-Decanoyloxytetradecanoyl]-O-[2-deoxy-4-O-phosphono-2-[(R)-3-hexanoyloxytetradecanoylamino]-3-O-[(R)-3-hexanoyloxytetradecanoyl]-α-D-glucopyranosyl]-L-serine Triethylammonium Salt [B40]
E.G7 (OVA) cells; E:T 12.5:1
  % Cytotoxicity: 8%
E.G7 (OVA) cells; E:T 25:1
  % Cytotoxicity: 12%
E.G7 (OVA) cells; E:T 50:1
  % Cytotoxicity: 20%
